This is an account of results in patent publication US8211919B2, “Amide derivatives as rock inhibitors” (Astellas Pharma Inc., priority 2005, dated 2012).

Each structure is given as a SMILES string. Structures can show the parent of a compound that is named as a salt.

The target of one assay is T1, human ROCK I (Homo sapiens, UniProt Q13464).
T1 construct: purchased Caruna Biosciences (sic)
The assay is described as follows: ROCK enzyme inhibition assay. Format: biochemical. As to the method:
ROCK enzyme inhibitory activity of the compounds of the present invention has been assayed as follow. A aqueous solution of Rho kinase substrate MYTP was added to 96-well plate. Following incubation for overnight at 4° C., the plate was blocked by using blocking buffer containing BSA. To the plate was added reaction buffer containing each concentration of compound, suitable concentration of human ROCK I (Caruna Biosciences), ATP, β-glycerol phosphate, EGTA, sodium orthovanadate and DTT, and then the plate was incubated for 1 hour. After washing the plate by washing buffer, anti-phosphothreonin antibody was added to the plate, and then the plate was incubated for 1 hour. After washing the plate by washing buffer again, HRP-conjugated anti-phosphorylated protein antibody was added to the plate, and then the plate was incubated for 1 hour. After washing the plate by washing buffer again, calorimetric substrate TMB microwell peroxidase substrate was added to the plate, and then the plate was incubated for appropriate time. After incubation, H2SO4 was added to the plate to stop the reaction, and then absorbance (450 nm) was measured by using spectromether. Based on the absorbance for each compound, the data is fit using Prism software to obtain a IC50 value.

The test system of assay [1] is Male Wistar rats. Put plainly: Effects on hindlimb blood flow (laser Doppler). Format: in vivo, rat. Particulars: 10 mg/kg p.o. An excerpt: As one of the study to clarify the usefulness of the compounds of the present invention for peripheral arterial disease, we conducted a study to evaluate the effects of the compounds on hindlimb blood flow in rats.
Male Wistar rats were anesthetized by intraperitoneal pentobarbital injection (Kanto chemical, Japan) after oral administration of compounds. Rats were placed on a heating plate for subsequent hindlimb blood flow analysis. We measured hindlimb blood flow using a laser Doppler blood flow meter (PeriScan System, Stockholm, Sweden). After the laser Doppler images were recorded, the average perfusion values of both limbs were calculated, and evaluated the effects of compounds on hindlimb blood flow. Each experiment was performed in about 4 animals.

The test system of assay [2] is Male SD rats, intra-articular MIA in right knee. The assay is described as follows: Changes in hindlimb weight distribution, monosodium iodoacetate (MIA) osteoarthritis model. Particulars: Rattus norvegicus, 504 h; oral administration; three weeks after MIA injection; incapacitance tester. The class given is in vivo. From the text:
As intra-articular injection of monosodium iodoacetate (MIA) induced human osteoarthritis-like histopathological changes in knee joint, this model would be very useful for the study of human osteoarthritis. Recently, it is reported the clinical scores of the joint pain were closely correrated to the grade of histological findings (J Vet Med Sci 65, 1195, 2003) and this model may be useful for estimation of therapeutic effects of pain with osteoarthritis.
Male SD rats were anesthetized with halothane (Takeda, Japan) and given single intra-articular injection of 1 mg of monosodium iodoacetate (MIA; Sigma, St. Louis, USA) through the infrapatellar ligament of the right knee. MIA was dissolved with physiologic saline and administered in a volume of 50 ul using a 27-gauge, 0.5-inch needle. Three weeks after the injection, hindlimb weight distribution was determined using an incapacitance tester (Linton Instrumentation, Norfork, UK). Rats were allowed to acclimate to the testing apparatus and when stationary, readings were taken over a 5 s period. […] Each group in each experiment were performed in about 8 animals.

Assay [3] has as its system Female SD rats, bradykinin injected into knee joint cavity. Put plainly: Pain alleviation effect on bradykinin induced joint pain model. The class given is in vivo, rat. As to the method: Bradykinin is known to be one of the important pain-related mediators in various pain and especially, sodium hyaluronate which is useful for pain in osteoarthritis is reported to be effective in bradykinin-induced joint pain model. Therefore, we examined effects of compounds in the model.
The making of the joint pain model and evaluation of a level of pain was conducted essentially based on the method described in Folia pharmacol. japon., 92, 17-27 (1988). Female SD rats (6-7 weeks old, Charles River Japan, Inc.) were anesthetized with halothane (Wako). Compound of the above Example were administrated orally to the rat by using oral sonde for rat. 60 min after administration of the compound, saline solution of bradykinin was injected into knee joint cavity of hind limb of rat (3 uM/site/50 ul), and then the response to pain of the rat after administration of bradykinin was observed. Level of pain was scored as five grade point (0-4) as follow: 0: no lameness to lameness for 10 seconds; 1: lameness for 10 to 30 seconds; 2: lift of the limb within 10 seconds or lameness for 31 or more seconds; 3: three-legged gait within 10 seconds followed by lameness; 4: three-legged gait for 10 or more seconds followed by lameness. About 10 rat models were used in each experimental group. It was confirmed that administration of bradykinin leads to response to pain scored as about 3.

The test system of assay [4] is Male Wistar rats. The assay is described as follows: Inhibitory effects on phenylephrine-induced elevation of urethral pressure. The class given is in vivo, rat. Particulars: i.v.; phenylephrine 30 ug/kg i.v. From the text: To evaluate the usefulness of the compounds of the present invention for urinary dysfunction associated with benign prostatic hyperplasia, we investigated the inhibitory effects of the intravenous administration of the compounds on phenylephrine-induced elevation of the urethral pressure in rats.
Male Wistar rats were anesthetized with urethane (SIGMA, USA). After midline abdominal incision, catheter to measure the urethral pressure (3.5 Fr, Millar, USA) was inserted into the urethra from top of the bladder. After confirming the Phenylephrine (30 ug/kg i.v.)-induced elevation of the urethral pressure, compounds were administered intravenously in increasing doses. Every 5 min after administration of compounds, Phenylephrine (30 ug/kg i.v.) was injected, and the inhibitory effects of compounds on phenylephrine-induced elevation of urethral pressure were evaluated. Each experiment was performed in about 4 animals.

T1 sequence (Q13464 whole entry): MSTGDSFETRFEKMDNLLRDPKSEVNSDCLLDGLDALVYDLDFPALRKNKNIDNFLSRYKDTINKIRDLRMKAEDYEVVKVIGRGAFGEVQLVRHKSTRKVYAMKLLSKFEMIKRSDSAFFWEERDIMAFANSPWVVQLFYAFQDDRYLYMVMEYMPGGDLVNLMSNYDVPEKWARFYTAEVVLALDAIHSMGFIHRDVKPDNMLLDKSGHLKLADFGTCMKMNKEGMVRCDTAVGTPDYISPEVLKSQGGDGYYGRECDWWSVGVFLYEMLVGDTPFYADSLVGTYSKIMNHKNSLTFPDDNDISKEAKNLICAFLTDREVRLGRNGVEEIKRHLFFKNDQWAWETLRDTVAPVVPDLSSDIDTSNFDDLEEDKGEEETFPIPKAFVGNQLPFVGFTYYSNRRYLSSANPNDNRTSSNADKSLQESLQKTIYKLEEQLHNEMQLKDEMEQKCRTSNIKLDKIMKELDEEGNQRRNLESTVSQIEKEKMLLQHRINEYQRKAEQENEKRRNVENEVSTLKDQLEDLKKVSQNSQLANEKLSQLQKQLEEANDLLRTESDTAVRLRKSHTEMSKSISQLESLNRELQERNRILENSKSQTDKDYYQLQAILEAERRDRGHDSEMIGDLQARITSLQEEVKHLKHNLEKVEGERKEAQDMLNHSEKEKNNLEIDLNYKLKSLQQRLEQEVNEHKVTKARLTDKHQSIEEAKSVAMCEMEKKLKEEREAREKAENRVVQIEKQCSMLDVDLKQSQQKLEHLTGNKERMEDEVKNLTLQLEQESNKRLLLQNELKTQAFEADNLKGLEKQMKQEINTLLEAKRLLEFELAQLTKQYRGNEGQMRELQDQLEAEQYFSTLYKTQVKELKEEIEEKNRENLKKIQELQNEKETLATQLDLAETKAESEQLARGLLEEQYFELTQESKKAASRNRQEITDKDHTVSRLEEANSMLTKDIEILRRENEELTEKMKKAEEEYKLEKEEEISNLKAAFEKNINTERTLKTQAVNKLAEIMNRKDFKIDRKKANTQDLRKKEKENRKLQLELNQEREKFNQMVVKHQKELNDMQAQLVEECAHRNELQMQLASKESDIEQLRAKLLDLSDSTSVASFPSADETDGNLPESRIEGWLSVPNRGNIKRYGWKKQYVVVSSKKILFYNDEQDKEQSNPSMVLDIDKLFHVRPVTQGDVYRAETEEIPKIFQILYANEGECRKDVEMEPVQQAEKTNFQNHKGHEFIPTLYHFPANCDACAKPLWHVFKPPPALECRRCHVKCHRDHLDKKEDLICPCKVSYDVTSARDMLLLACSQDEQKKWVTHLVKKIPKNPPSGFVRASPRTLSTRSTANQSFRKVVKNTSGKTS

The compound `O=C(NCc1ccccc1)Nc1ccc(-c2ccncc2)cc1` [Example 1, 1-benzyl-3-[4-(4-pyridinyl)phenyl]urea] registered an IC50 against human ROCK I of 342 nM.

Take `C[C@@H](NC(=O)Nc1ccc(-c2ccncc2)cc1)c1ccccc1` [Example 3, 1-[(1R)-1-phenylethyl]-3-[4-(4-pyridinyl)phenyl]urea]: the 50% inhibitory concentration (IC50) on human ROCK I was found to be 240 nM.

Turning to `O=C(Nc1ccc(-c2ccncc2)cc1)N[C@H](CO)c1ccccc1` [Example 4, 1-[(1S)-2-hydroxy-1-phenylethyl]-3-[4-(4-pyridinyl)phenyl]urea], in the assay on Male Wistar rats [1], the “% of increase of blood flow” value is more than 130%. Further, the median effective dose (ED50) in assay [2] was less than 3 mg/kg. The IC50 against human ROCK I is 122 nM.

Consider `Cl.O=C(CNc1ccccc1)Nc1ccc(-c2ccncc2)cc1` [Example 26, 2-anilino-N-[4-(4-pyridinyl)phenyl]acetamide hydrochloride], for which the pain score in assay [3] (32 mg/kg orally, 60 min before bradykinin, grade 0-4, vehicle 2.7) is 1.4. In assay [3] (oral administration, dose dependence), the bradykinin-induced pain responses result is “dose dependently improved”. This compound also displayed an IC50 at human ROCK I of 77 nM.

Take `N[C@@H](Cc1ccccc1)C(=O)Nc1ccc(-c2ccncc2)cc1` [Example 53, (2S)-2-amino-3-phenyl-N-[4-(4-pyridinyl)phenyl]propanamide dihydrochloride]: the half-inhibitory concentration (IC50) at human ROCK I came to 18 nM.

For `N[C@H](Cc1ccccc1)C(=O)Nc1ccc(-c2ccncc2)cc1` [Example 54, (2R)-2-amino-3-phenyl-N-[4-(4-pyridinyl)phenyl]propanamide], the “% of increase of blood flow” value with Male Wistar rats [1] is reported as more than 130%. For the same compound, the ED50 in assay [2] is less than 3 mg/kg. This compound also yielded a 50% inhibitory concentration (IC50) at human ROCK I of 10 nM.

Consider `N[C@@H](Cc1ccccc1)C(=O)N1CCc2cc(-c3ccncc3)ccc21` [Example 58, (2S)-1-oxo-3-phenyl-1-[5-(4-pyridinyl)-2,3-dihydro-1H-indol-1-yl]-2-propanamine], for which the ED50 in assay [2] is less than 3 mg/kg. The half-inhibitory concentration (IC50) on human ROCK I worked out at 53 nM.

With `O=C(Nc1ccc(-c2ccncc2)cc1)N[C@H](CO)c1cccs1` [Example 67, 1-[(1R)-2-hydroxy-1-(2-thienyl)ethyl]-3-[4-(4-pyridinyl)phenyl]urea], the “% of increase of blood flow” value in the assay on Male Wistar rats [1] was more than 130%. The median effective dose (ED50) in assay [2] was less than 3 mg/kg. The compound further had an IC50 on human ROCK I of 112 nM.

Compound `O=C(Nc1ccc(-c2ccncc2)cc1)N[C@H](CO)c1ccccc1C(F)(F)F` [Example 72, 1-{(1S)-2-hydroxy-1-[2-(trifluoromethyl)phenyl]ethyl}-3-[4-(4-pyridinyl)phenyl]urea] showed a 50% inhibitory concentration (IC50) against human ROCK I of 25 nM.

The compound `O=C(Nc1ccc(-c2ccncc2)cc1)N[C@@H](CO)Cc1ccccc1` [Example 73, 1-[(1R)-1-benzyl-2-hydroxyethyl]-3-[4-(4-pyridinyl)phenyl]urea] registered an IC50 at human ROCK I of 84 nM.

As to `N[C@H](Cc1cccc(F)c1)C(=O)Nc1ccc(-c2ccncc2)cc1` [Example 86, 3-fluoro-N-[4-(4-pyridinyl)phenyl]-D-phenylalaninamide], the “% of increase of blood flow” value in the assay on Male Wistar rats [1] is more than 130%. This compound also gave a concentration for half-maximal inhibition (IC50) on human ROCK I of 5 nM.

`CN[C@H](Cc1ccccc1)C(=O)Nc1ccc(-c2ccncc2)cc1` [Example 98, N-alpha-methyl-N-[4-(4-pyridinyl)phenyl]-D-phenylalaninamide]: the “% of increase of blood flow” value with Male Wistar rats [1] was more than 130%. In addition, in assay [2], the ED50 is less than 3 mg/kg. At human ROCK I, the IC50 was 21 nM.

With `N[C@@H](C(=O)Nc1ccc(-c2ccncc2)cc1)c1ccccc1` [Example 108, (2R)-2-amino-2-phenyl-N-[4-(4-pyridinyl)phenyl]acetamide], the “% of increase of blood flow” value in the assay with Male Wistar rats [1] is more than 130%. Moreover, the median effective dose (ED50) in assay [2] was less than 3 mg/kg. Moreover, at human ROCK I, 14 nM corresponded to half-maximal inhibition (IC50).

The compound `N[C@H](C(=O)Nc1ccc(-c2ccncc2)cc1)c1ccccc1` [Example 109, (2S)-2-amino-2-phenyl-N-[4-(4-pyridinyl)phenyl]acetamide] gave an IC50 against human ROCK I of 12 nM. Besides, the “Inhibition of elevation in urethral pressure ED30” value (shortened to “Inhibition of elevation”) in the assay with Male Wistar rats [4] was less than 1 mg/kg.

In turn, `O=C(Nc1ccc(-c2ccncc2)cc1)C(c1ccccc1)N1CCOCC1` (centres unmarked) [Example 119, 2-morpholin-4-yl-2-phenyl-N-[4-(4-pyridinyl)phenyl]acetamide] yielded an ED50 in assay [2] of less than 3 mg/kg. Further, the midpoint of inhibition on human ROCK I, the IC50, lay at 212 nM.

In turn, `Nc1nccc(-c2ccc3c(c2)CCN3C(=O)[C@@H](N)Cc2ccccc2)n1` [Example 151, 4-{1-[(2S)-2-amino-3-phenylpropanoyl]-2,3-dihydro-1H-indol-5-yl}pyrimidin-2-amine] yielded a half-inhibitory concentration (IC50) against human ROCK I of 86 nM. For the same compound, the “Inhibition of elevation” value with Male Wistar rats [4] is listed as less than 1 mg/kg.

Turning to `Nc1nccc(-c2ccc(NC(=O)[C@H](N)c3ccccc3)cc2)n1` [Example 154, (2R)-2-amino-N-[4-(2-aminopyrimidin-4-yl)phenyl]-2-phenylacetamide], the “% of increase of blood flow” value with Male Wistar rats [1] was more than 130%. In assay [2], this compound returned a median effective dose (ED50) of less than 3 mg/kg. The compound also displayed an IC50 at human ROCK I of 42 nM. In the assay with Male Wistar rats [4], the “Inhibition of elevation” value is on record as less than 1 mg/kg.

The compound `Nc1nccc(-c2ccc(NC(=O)[C@H](N)c3cccs3)cc2)n1` [Example 155, (2S)-2-amino-N-[4-(2-aminopyrimidin-4-yl)phenyl]-2-(2-thienyl)acetamide] registered an IC50 on human ROCK I of 72 nM.

One may read the IC50 as the concentration that gives 50% inhibition. Low values mean inhibition by little substance, high ones a need for much substance. By ED50 is commonly meant the dose that gives a 50% effect, or the effect in half of the subjects. A high value points to a need for a large dose.
